Like-named read-outs stand apart in the source and are kept apart here. *1 amine or outer side, *2 acyl side, *3 side chain or, on linkers, in order; H or OH if unused. Where a SMILES comes first, the peptide text is derived from it. [ ]: non-standard residue; d: D form. The star is where a group is joined. Benzothienyl2CO(5-CF2PO3H2) = O=C(c1cc2cc(C(F)(F)P(=O)(O)O)ccc2s1)*; βAla(N-(4-Br-phenyl)) = O=C(CCN(c1ccc(Br)cc1)[*:1])[*:2]; NHBn(4-(4-Me-thiazol-5-yl)) = Cc1ncsc1-c1ccc(CN*)cc1; Hyp = O=C(O)[C@@H]1C[C@@H](O)CN1; Tle = CC(C)(C)[C@H](N)C(=O)O; Ahp = NCCCCCCC(=O)O
Molecular target: T1, STAT6 (Homo sapiens, UniProt P42226)
T1 construct: endogenous in cells; host or cells: MOLM-16, KU-812, SKNO1, MB231, L1236
T1 sequence (P42226 1-847): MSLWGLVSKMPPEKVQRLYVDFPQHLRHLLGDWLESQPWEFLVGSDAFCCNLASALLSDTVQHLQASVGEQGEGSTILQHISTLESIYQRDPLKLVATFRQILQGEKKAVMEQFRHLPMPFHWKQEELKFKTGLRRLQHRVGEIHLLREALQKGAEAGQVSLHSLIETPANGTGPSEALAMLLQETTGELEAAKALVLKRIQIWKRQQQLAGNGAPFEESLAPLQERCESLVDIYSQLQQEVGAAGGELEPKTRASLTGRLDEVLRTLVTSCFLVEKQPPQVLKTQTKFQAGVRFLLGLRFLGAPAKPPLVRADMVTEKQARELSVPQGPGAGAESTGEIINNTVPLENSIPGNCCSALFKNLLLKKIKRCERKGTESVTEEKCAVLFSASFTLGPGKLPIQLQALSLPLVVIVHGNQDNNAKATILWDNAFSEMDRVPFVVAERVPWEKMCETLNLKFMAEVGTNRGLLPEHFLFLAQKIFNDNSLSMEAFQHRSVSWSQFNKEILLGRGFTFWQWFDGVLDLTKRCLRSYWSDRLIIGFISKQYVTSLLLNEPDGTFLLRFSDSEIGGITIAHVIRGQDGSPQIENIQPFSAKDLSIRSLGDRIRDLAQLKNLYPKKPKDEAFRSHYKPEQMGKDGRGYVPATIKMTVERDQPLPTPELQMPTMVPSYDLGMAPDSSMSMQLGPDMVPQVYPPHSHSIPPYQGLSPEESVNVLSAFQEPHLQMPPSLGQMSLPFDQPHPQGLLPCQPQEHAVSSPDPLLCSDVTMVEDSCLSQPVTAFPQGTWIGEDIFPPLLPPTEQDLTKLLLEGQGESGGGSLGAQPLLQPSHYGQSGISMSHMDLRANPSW
Assay: Immunoblotting (Western blot) analysis of STAT6 degradation efficiency of degraders in treated cells
Format: cell-based
Outline: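 Protein levels of STAT5 and STAT6 were assessed in cells cultured at 37 °C in 10% FBS medium after compound exposure, by quantitative fluorescent Western blotting normalised to equal loading and referenced to GAPDH.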

[1] = MOLM-16 cells, numeric bound, read-out: DC50 S6 MOLM-16
[2] = MOLM-16 cells, class symbols, read-out: DC50 S6 MOLM-16
[3] = L1236 cells, read-out: DC50 S6 L1236

Work on `CC(C)(C)[C@H](NC(=O)c1cc2cc(C(F)(F)P(=O)(O)O)ccc2s1)C(=O)N1C[C@@H](OCCN2CCC(Nc3cccc4c3CN(C3CCC(=O)NC3=O)C4=O)CC2)C[C@H]1C(=O)N1CCO[C@H](c2ccccc2)C1` (stereo partly drawn) [Compound 605, ((2-(((2S)-1-((2S,4S)-4-(2-(4-((2-(2,6-dioxopiperidin-3-yl)-1-oxoisoindolin-4-yl)amino)piperidin-1-yl)ethoxy)-2-((R)-2-phenylmorpholine-4-carbonyl)pyrrolidin-1-yl)-3,3-dimethyl-1-oxobutan-2-yl)carbamoyl)benzo[b]thiophen-5-yl)difluoromethyl)phosphonic acid] yielded a DC50 [1] greater than 0.3 µM.
`CC(C)(C)[C@H](NC(=O)c1cc2cc(C(F)(F)P(=O)(O)O)ccc2s1)C(=O)N1C[C@@H](OCC(=O)NCCCCCC#Cc2cccc3c2C(=O)N(C2CCC(=O)NC2=O)C3=O)C[C@H]1C(=O)N1CCC[C@H](c2ccccc2)C1` (stereo partly drawn) [Compound 501, ((2-(((2S)-1-((2S,4S)-4-(2-((7-(2-(2,6-dioxopiperidin-3-yl)-1,3-dioxoisoindolin-4-yl)hept-6-yn-1-yl)amino)-2-oxoethoxy)-2-((R)-3-phenylpiperidine-1-carbonyl)pyrrolidin-1-yl)-3,3-dimethyl-1-oxobutan-2-yl)carbamoyl)benzo[b]thiophen-5-yl)difluoromethyl)phosphonic acid] was tested, and the DC50 [2] was greater than 10 µM.
Compound `CC(C)(C)[C@H](NC(=O)c1cc2cc(C(F)(F)P(=O)(O)O)ccc2s1)C(=O)N1C[C@@H](OCCCCCC(=O)N2Cc3cc4c(cc3C2)C(=O)N(C2CCC(=O)NC2=O)C4)C[C@H]1C(=O)N1CCO[C@H](c2ccccc2)C1` (stereo partly drawn) [Compound 590, ((2-(((2S)-1-((2S,4S)-4-((6-(6-(2,6-dioxopiperidin-3-yl)-5-oxo-3,5,6,7-tetrahydropyrrolo[3,4-f]isoindol-2(1H)-yl)-6-oxohexyl)oxy)-2-((R)-2-phenylmorpholine-4-carbonyl)pyrrolidin-1-yl)-3,3-dimethyl-1-oxobutan-2-yl)carbamoyl)benzo[b]thiophen-5-yl)difluoromethyl)phosphonic acid] has a DC50 [2] of 1 to 10 µM.
In the case of `CC(C)(C)[C@H](NC(=O)c1cc2cc(C(F)(F)P(=O)(O)O)ccc2s1)C(=O)N1CCN(C(=O)CC(=O)NCCCC#Cc2ccc3c(c2)C(=O)N(C2CCC(=O)NC2=O)C3=O)C[C@H]1C(=O)N1CCC[C@H](c2ccccc2)C1` (stereo partly drawn) [Compound 526, ((2-(((2S)-1-((2S)-4-(3-((5-(2-(2,6-dioxopiperidin-3-yl)-1,3-dioxoisoindolin-5-yl)pent-4-yn-1-yl)amino)-3-oxopropanoyl)-2-((R)-3-phenylpiperidine-1-carbonyl)piperazin-1-yl)-3,3-dimethyl-1-oxobutan-2-yl)carbamoyl)benzo[b]thiophen-5-yl)difluoromethyl)phosphonic acid], the DC50 [2] is reported as greater than 10 µM.
Work on `Cc1ncsc1-c1ccc(CNC(=O)[C@@H]2C[C@@H](O)CN2C(=O)[C@@H](NC(=O)CCCCCCNC(=O)CCN(C(=O)[C@@H]2CCCN2C(=O)[C@@H](NC(=O)c2cc3cc(C(F)(F)P(=O)(O)O)ccc3s2)C(C)(C)C)c2ccc(Br)cc2)C(C)(C)C)cc1` [Compound 399] ({Benzothienyl2CO(5-CF2PO3H2)}-[Tle]P[βAla(N-(4-Br-phenyl))][Ahp][Tle][Hyp]-{NHBn(4-(4-Me-thiazol-5-yl))}) yielded a DC50 (read-out: DC50 S6 MB231, MB231 cells) greater than 10 µM.
`CC(C)(C)[C@H](NC(=O)c1cc2cc(C(F)(F)P(=O)(O)O)ccc2s1)C(=O)N1C[C@@H](OCCCCCCC#Cc2cccc3c2CN(C2CCC(=O)NC2=O)C3=O)C[C@H]1C(=O)N1CCOC(c2ccc(F)c(Cl)c2)C1` (stereo partly drawn) [Compound 608, ((2-(((2S)-1-((2S,4S)-2-(2-(3-chloro-4-fluorophenyl)morpholine-4-carbonyl)-4-((8-(2-(2,6-dioxopiperidin-3-yl)-1-oxoisoindolin-4-yl)oct-7-yn-1-yl)oxy)pyrrolidin-1-yl)-3,3-dimethyl-1-oxobutan-2-yl)carbamoyl)benzo[b]thiophen-5-yl)difluoromethyl)phosphonic acid] showed a DC50 [1] greater than 0.3 µM.
`O=C1CCC(N2Cc3cc(C#CCCCCCC(=O)N4CC[C@H]5CC[C@@H](C(=O)N6CCOC(c7ccc(F)c(Cl)c7)C6)N5C(=O)[C@@H](NC(=O)c5cc6cc(C(F)(F)P(=O)(O)O)ccc6s5)C4)ccc3C2=O)C(=O)N1` (stereo partly drawn) [Compound 575, ((2-(((5S,8S,10aR)-8-(2-(3-chloro-4-fluorophenyl)morpholine-4-carbonyl)-3-(8-(2-(2,6-dioxopiperidin-3-yl)-1-oxoisoindolin-5-yl)oct-7-ynoyl)-6-oxodecahydropyrrolo[1,2-a][1,5]diazocin-5-yl)carbamoyl)benzo[b]thiophen-5-yl)difluoromethyl)phosphonic acid] was tested, and the DC50 [3] was greater than 10 µM and the DC50 [2] was greater than 10 µM.
Work on `Cc1ncsc1-c1ccc([C@H](C)NC(=O)[C@@H]2C[C@@H](O)CN2C(=O)[C@@H](NC(=O)CCCCCCNC(=O)CO[C@H]2C[C@@H](C(=O)N3CCO[C@H](c4ccccc4)C3)N(C(=O)[C@@H](NC(=O)c3cc4cc(C(F)(F)P(=O)(O)O)ccc4s3)C(C)(C)C)C2)C(C)(C)C)cc1` [Compound 430, (difluoro(2-(((S)-1-((2S,4S)-4-(2-((7-(((S)-1-((2S,4R)-4-hydroxy-2-(((S)-1-(4-(4-methylthiazol-5-yl)phenyl)ethyl)carbamoyl)pyrrolidin-1-yl)-3,3-dimethyl-1-oxobutan-2-yl)amino)-7-oxoheptyl)amino)-2-oxoethoxy)-2-((R)-2-phenylmorpholine-4-carbonyl)pyrrolidin-1-yl)-3,3-dimethyl-1-oxobutan-2-yl)carbamoyl)benzo[b]thiophen-5-yl)methyl)phosphonic acid] yielded a DC50 [3] greater than 10 µM and a DC50 [2] greater than 10 µM.
`Cc1ncsc1-c1ccc([C@H](C)NC(=O)[C@@H]2C[C@@H](O)CN2C(=O)[C@@H](NC(=O)CCNC(=O)CO[C@H]2C[C@@H](C(=O)N3CCC[C@H](c4ccccc4)C3)N(C(=O)[C@@H](NC(=O)c3cc4cc(C(F)(F)P(=O)(O)O)ccc4s3)C(C)(C)C)C2)C(C)(C)C)cc1` [Compound 435, (difluoro(2-(((S)-1-((2S,4S)-4-(2-((3-(((S)-1-((2S,4R)-4-hydroxy-2-(((S)-1-(4-(4-methylthiazol-5-yl)phenyl)ethyl)carbamoyl)pyrrolidin-1-yl)-3,3-dimethyl-1-oxobutan-2-yl)amino)-3-oxopropyl)amino)-2-oxoethoxy)-2-((R)-3-phenylpiperidine-1-carbonyl)pyrrolidin-1-yl)-3,3-dimethyl-1-oxobutan-2-yl)carbamoyl)benzo[b]thiophen-5-yl)methyl)phosphonic acid] was tested, and the DC50 [3] was greater than 10 µM and the DC50 [2] was greater than 10 µM.
Work on `Cc1cc([C@H](C(=O)N2C[C@H](O)C[C@H]2C(=O)N[C@@H](CC(=O)NCCOCCOCCNC(=O)CO[C@@H]2C[C@@H](C(=O)N(C)c3ccc(Br)cc3)N(C(=O)[C@@H](NC(=O)c3cc4cc(C(F)(F)P(=O)(O)O)ccc4s3)C(C)(C)C)C2)c2ccc(-c3scnc3C)cc2)C(C)C)on1` [Compound 424, ((2-(((S)-1-((2S,4R)-2-((4-bromophenyl)(methyl)carbamoyl)-4-(((S)-1-((2S,4R)-4-hydroxy-1-((R)-3-methyl-2-(3-methylisoxazol-5-yl)butanoyl)pyrrolidin-2-yl)-3-(4-(4-methylthiazol-5-yl)phenyl)-1,5,16-trioxo-9,12-dioxa-2,6,15-triazaheptadecan-17-yl)oxy)pyrrolidin-1-yl)-3,3-dimethyl-1-oxobutan-2-yl)carbamoyl)benzo[b]thiophen-5-yl)difluoromethyl)phosphonic acid] yielded a DC50 [2] greater than 10 µM.
Compound `CC(C)(C)[C@H](NC(=O)c1cc2cc(C(F)(F)P(=O)(O)O)ccc2s1)C(=O)N1Cc2cc(OCC(=O)NCCC#Cc3cccc4c3C(=O)N(C3CCC(=O)NC3=O)C4=O)ccc2C[C@H]1C(=O)N1CCC[C@H](c2ccccc2)C1` (stereo partly drawn) [Compound 551, ((2-(((2S)-1-((3S)-7-(2-((4-(2-(2,6-dioxopiperidin-3-yl)-1,3-dioxoisoindolin-4-yl)but-3-yn-1-yl)amino)-2-oxoethoxy)-3-((R)-3-phenylpiperidine-1-carbonyl)-3,4-dihydroisoquinolin-2(1H)-yl)-3,3-dimethyl-1-oxobutan-2-yl)carbamoyl)benzo[b]thiophen-5-yl)difluoromethyl)phosphonic acid] has a DC50 [2] greater than 10 µM.

Source: patent US20230295197A1, “STAT5 and STAT6 Degraders and Uses Thereof” (REGENTS OF THE UNIVERSITY OF MICHICAN, priority 2022, published 2023)
